Reference: patent publication US20150374815A1, “METHODS AND COMPOSITIONS FOR TREATMENT WITH SYNTHETIC NANOCARRIERS AND IMMUNE CHECKPOINT INHIBITORS” (Selecta Biosciences, Inc., priority 2014, published 2015)
Entries after “also recorded” stand apart in the source; their conditions may differ.

Tests used:
[1] = tested on: TNF-α; assay: Serum cytokine induction after NC-CpG or free CpG inoculation (ELISA); type: in vivo; conditions: s.c.; 100 μg NC-CpG (containing 5% CpG-1826) or 5 μg free CpG-1826; pooled sera, 3/group; FIG. 4
Protocol: (§1) TNF-α and IL-6 were induced in sera of NC-CpG- and free CpG-inoculated animals. Animal groups were inoculated (s.c.) either with 100 μg of NC-CpG (containing 5% CpG-1826) or with 5 μg of free CpG-1826. At different time-points post inoculation serum was collected from the animals (3/group) by terminal bleed, pooled and assayed for cytokine presence in ELISA (BD).

[2] = tested on: IL-6; assay: as above; type: in vivo; conditions: s.c.; 100 μg NC-CpG (containing 5% CpG-1826) or 5 μg free CpG-1826; pooled sera, 3/group; FIG. 4
Protocol: as §1

## 5′-TCCATGACGTTCCTGACGTT-3′ [free CpG]
[1]
  induction of TNF-α in serum: induced; also recorded: substantially higher induction
[2]
  induction of IL-6 in serum: induced; also recorded: substantially higher induction
